Data reported in patent publication US20180305334A1, “COMPOUNDS, COMPOSITIONS AND METHODS OF USE AGAINST STRESS GRANULES” (Aquinnah Pharmaceuticals, Inc., priority 2015, published 2018).

Each molecule was assayed on TDP-43 aggregation in PC12 cells stably expressing TDP-43^Q331K::eGFP (assay: In vitro efficacy assay, TDP-43 aggregation concentration-response). Details: Rattus norvegicus, PC-12, inhibition of TDP-43 aggregation; PC12 TDP-43^Q331K::eGFP, 1 hour pre-treatment, 15 μM sodium arsenite for 23 hours; 10-point dose response.
Format: cell-based
Description: Exemplary compounds of the invention were evaluated for efficacy in inhibiting TDP-43 inclusions using a concentration-response assay. Briefly, PC12 cells stably expressing a GFP-tagged mutant form of TDP-43 (TDP-43^Q331K::eGFP) were pre-treated for 1 hour with exemplary compounds and stressed with 15 μM sodium arsenite for 23 hours to induce TDP-43 aggregation. The inhibitory effect on TDP-43 aggregation was measured using fluorescence microscopy. The ratio of cells with TDP-43 aggregates was calculated based on the total number of cells with detectable GFP expression.

IC50 [µM] | Structure (SMILES)
1.5 to 4 | CCN(CC1CCCN(CCc2cccc(OC)c2)C1)C(=O)c1ccc[nH]1 (centres unmarked) [Compound 231]
< 1.5 | COc1cccc(CCN2CCCC(CN(C(=O)c3cc4ccccc4[nH]3)C(C)C)C2)c1 (centres unmarked) [Compound 143]
4 to 7 | CC(C)N(CC1CCN(Cc2cccc(Cl)c2)CC1)C(=O)c1cc2ccccc2[nH]1 [compound 278]
> 10 | CN(CC1CCN(Cc2ccc(Cl)cc2)CC1)C(=O)c1cc2ccccc2[nH]1 [compound 262]
> 10 | CCN(CC1CCCNC1)C(=O)c1cc2ccc(C)cc2[nH]1 (centres unmarked) [compound 417]
> 10 | CCN(CC1CCCN(Cc2ccc(C(=O)OC)cc2)C1)C(=O)c1cc2ccccc2[nH]1 (centres unmarked) [Compound 212]
1.5 to 4 | CCN(CC1CCCN(CCc2cccc(OC)c2)C1)C(=O)c1cc2ccccc2n1CC (centres unmarked) [Compound 238]
1.5 to 4 | CCN(CC1CCCN(Cc2cc3ccccc3o2)C1)C(=O)c1cc2cc(OC)ccc2[nH]1 (centres unmarked) [Compound 203]
< 1.5 | CCN(CC1CCN(C(C)(C)Cc2cc3ccccc3o2)CC1)C(=O)c1cc2ccccc2[nH]1 [Compound 339]
1.5 to 4 | CCN(CC1CCCN(Cc2ccccc2)C1)C(=O)c1cc2ccccc2[nH]1 (centres unmarked) [Compound 132]
< 1.5 | COc1cccc(CCN2CCC(CN(CC(F)(F)F)C(=O)c3cc4ccccc4[nH]3)CC2)c1 [compound 307]
1.5 to 4 | CCN(CC1CCCN(c2ccc(OC)cc2)C1)C(=O)c1cc2ccccc2[nH]1 (centres unmarked) [Compound 227]
1.5 to 4 | CCN(CC1CCN(Cc2cccc(OC)c2)CC1)C(=O)c1cc2ccccc2[nH]1 [compound 267]
4 to 7 | COc1cccc(CN2CCC(CN(C)C(=O)c3cc4ccccc4[nH]3)CC2)c1 [compound 257]
1.5 to 4 | COc1cccc(CCNCCNC(=O)c2cc3ccccc3[nH]2)c1 [Compound 221]
> 10 | CCN(CC1CCCN(Cc2cccc(F)c2)C1)C(=O)c1cc2ccccc2[nH]1 (centres unmarked) [Compound 131]
< 1.5 | CCN(CC1CCNCC1)C(=O)c1cc2ccccc2[nH]1 [Compound 250]
> 10 | CN(CC1CCN(Cc2cccc(Cl)c2)CC1)C(=O)c1cc2ccccc2[nH]1 [compound 256]
< 1.5 | CC(C)(Cc1cccc(F)c1)N1CCCC(CN(CC(F)(F)F)C(=O)c2cc3ccccc3[nH]2)C1 (centres unmarked) [Compound 352]
< 1.5 | COc1ccc(CN2CCC(CN(C(=O)c3cc4ccccc4[nH]3)C(C)C)CC2)cc1 [compound 265]
> 10 | CCN(CC1CCCNC1)C(=O)c1cc2c(OC)cccc2[nH]1 (centres unmarked) [compound 422]
> 10 | CC(C)N(CC1CCN(Cc2ccccc2Cl)CC1)C(=O)c1cc2ccccc2[nH]1 [compound 281]
1.5 to 4 | CCN(CC1CCN(C2CCc3ccccc3C2)CC1)C(=O)c1cc2ccccc2[nH]1 (centres unmarked) [Compound 211]
> 10 | CN(CC1CCN(Cc2ccc(F)cc2)CC1)C(=O)c1cc2ccccc2[nH]1 [compound 269]
1.5 to 4 | CCN(CC1CCCN(CCc2cccc(OC)c2)C1)C(=O)c1cc(C#N)c[nH]1 (centres unmarked) [Compound 242]

IC50 [µM] | Structure (SMILES)
> 10 | CC(C)N(CC1CCNCC1)C(=O)c1cc2ccccc2[nH]1 [compound 276]
4 to 7 | CCN(CC1CCCN(C2Cc3ccccc3C2)C1)C(=O)c1cc2ccccc2[nH]1 (centres unmarked) [Compound 209]
1.5 to 4 | CCN(CC1CCCN(Cc2ccc(Cl)cc2)C1)C(=O)c1cc2ccc(OC)cc2[nH]1 (centres unmarked) [Compound 159]
1.5 to 4 | CCN(CC1CCCN(CCc2cccc(OC)c2)C1)C(=O)c1ccc(C)[nH]1 (centres unmarked) [Compound 246]
< 1.5 | O=C(c1cc2ccccc2[nH]1)N(CC1CCN(CCc2ccccc2)CC1)CC(F)(F)F [compound 305]
4 to 7 | CCN(CC1CCN(Cc2cccc(OC(F)F)c2)CC1)C(=O)c1cc2cc(OC(F)F)ccc2[nH]1 [compound 310]
< 1.5 | CCN(CC1CCN(Cc2ccc(OC)cc2)CC1)C(=O)c1cc2ccccc2[nH]1 [compound 288]
< 1.5 | CCN(CC1CCCN(Cc2cc3ccccc3o2)C1)C(=O)c1cc2c(OC)cccc2[nH]1 (centres unmarked) [Compound 204]
> 10 | CCN(CC1CCCN(CCc2cccc(OC)c2)C1)C(=O)C1Cc2ccccc2N1C (centres unmarked) [Compound 239]
< 1.5 | CCN(CC1CCN(CC(F)(F)c2ccccc2)CC1)C(=O)c1cc2ccccc2[nH]1 [Compound 411]
> 10 | CN(CC1CCN(Cc2ccccc2)CC1)C(=O)c1cc2ccccc2[nH]1 [compound 263]
> 10 | CCN(CC1CCCN(Cc2ccc(-c3nnn[nH]3)cc2)C1)C(=O)c1cc2ccccc2[nH]1 (centres unmarked) [Compound 225]
> 10 | CCN(CC1CCCN(Cc2cccc(OC(F)(F)F)c2)C1)C(=O)c1cc2cc(OC(F)(F)F)ccc2[nH]1 (centres unmarked) [Compound 175]
< 1.5 | CCN(CC1CCCN(Cc2ccc(Cl)cc2)C1)C(=O)c1cc2c(F)cc(F)cc2[nH]1 (centres unmarked) [Compound 169]
> 10 | CC(C)N(CC1CCN(Cc2ccc(F)cc2)CC1)C(=O)c1cc2ccccc2[nH]1 [compound 284]
1.5 to 4 | CCN(CC1CCN(CC(F)(F)c2cccc(OC)c2)CC1)C(=O)c1cc2ccccc2[nH]1 [Compound 412]
1.5 to 4 | CCN(CC1CCCN(C(C)(C)c2cc3ccccc3o2)C1)C(=O)c1cc2ccccc2[nH]1 (centres unmarked) [compound 317]
1.5 to 4 | CCN(CC1CCN(Cc2ccc(Cl)cc2)CC1)C(=O)c1cc2cc(OC)ccc2[nH]1 [compound 403]
1.5 to 4 | COc1ccc(CN2CCC(CN(C)C(=O)c3cc4ccccc4[nH]3)CC2)cc1 [compound 261]
< 1.5 | CCN(CC1CCCN(Cc2cccc(OC)c2)C1)C(=O)c1cc2ccccc2[nH]1 (centres unmarked) [compound 122]
1.5 to 4 | CCN(CC1CCCN(Cc2ccc(Cl)cc2)C1)C(=O)c1cc2cc(F)c(F)cc2[nH]1 (centres unmarked) [Compound 172]
< 1.5 | CCN(CC1CCCN(Cc2ccc(OC)cc2)C1)C(=O)c1cc2cc(Cl)ccc2[nH]1 (centres unmarked) [Compound 161]
4 to 7 | CCN(CC1CCNCC1)C(=O)c1cc2cc(OC(F)(F)F)ccc2[nH]1 [compound 401]
1.5 to 4 | CCN(CC1CCCN(Cc2ccc(Cl)cc2)C1)C(=O)c1cc2c(Cl)cc(Cl)cc2[nH]1 (centres unmarked) [Compound 153]
> 10 | CCN(CC1CCNCC1)C(=O)c1cc2cc(OC)ccc2[nH]1 [compound 400]

IC50 [µM] | Structure (SMILES)
> 10 | CCN(CC1CCCNC1)C(=O)c1cc2cc(OC(F)F)ccc2[nH]1 (centres unmarked) [compound 425]
< 1.5 | CCN(CC1CCCN(CCc2ccc(OC)cc2)C1)C(=O)c1cc2ccccc2[nH]1 (centres unmarked) [Compound 127]
1.5 to 4 | CCN(CC1CCN(Cc2ccccc2F)CC1)C(=O)c1cc2ccccc2[nH]1 [compound 268]
1.5 to 4 | COc1cccc(CC(=O)N2CCC(CNC(=O)c3cc4ccccc4[nH]3)CC2)c1 [Compound 322]
> 10 | CCN(CC1CCCNC1)C(=O)c1cc2cc(OC(F)(F)F)ccc2[nH]1 (centres unmarked) [compound 426]
4 to 7 | CCN(CC1CCCNC1)C(=O)c1cc2cc(OCc3ccccc3)ccc2[nH]1 (centres unmarked) [compound 424]
< 1.5 | COc1cccc(CCN2CCCC(CN(C(=O)c3cc4ccccc4[nH]3)c3ccccc3)C2)c1 (centres unmarked) [Compound 144]
< 1.5 | CCN(CC1CCN(C(C)(C)Cc2ccc(Cl)cc2)CC1)C(=O)c1cc2ccccc2[nH]1 [Compound 341]
> 10 | CCN(CC1CCN(Cc2cccc(F)c2)CC1)C(=O)c1cc2ccccc2[nH]1 [Compound 252]
> 10 | CCN(CC1CCCNC1)C(=O)c1cc2cc(Cl)ccc2[nH]1 (centres unmarked) [compound 420]
1.5 to 4 | COc1ccccc1CN1CCC(CNC(=O)c2cc3ccccc3[nH]2)CC1 [compound 273]
< 1.5 | CCN(CC1CCN(C2CCc3ccc(OC)cc3C2)CC1)C(=O)c1cc2ccccc2[nH]1 (centres unmarked) [Compound 329]
> 10 | COc1cccc(CN2CCC(CNC(=O)c3cc4ccccc4[nH]3)CC2)c1 [compound 292]
> 10 | CCN(CC1CCCNC1)C(=O)c1cc2cc(F)ccc2[nH]1 (centres unmarked) [compound 414]
< 1.5 | O=C(c1cc2ccccc2[nH]1)N(CC1CCN(CCc2cccc(F)c2)CC1)CC(F)(F)F [compound 306]
< 1.5 | CCN(CC1CCCN(CC(C)(C)c2cccc(OC)c2)C1)C(=O)c1cc2cc(OC)ccc2[nH]1 (centres unmarked) [Compound 406]
1.5 to 4 | CCN(CC1CCCN(Cc2ccc(OC)cc2)C1)C(=O)c1cc2cc(OCc3ccccc3)ccc2[nH]1 (centres unmarked) [Compound 174]
1.5 to 4 | CCN(CC1CCCN(CC(C)(C)c2cc3ccccc3o2)C1)C(=O)c1cc2ccccc2[nH]1 (centres unmarked) [Compound 409]
< 1.5 | O=C(NCC1CCN(Cc2cccc(Cl)c2)CC1)c1cc2ccccc2[nH]1 [compound 271]
< 1.5 | CCN(CC1CCCN(Cc2ccc(OC)cc2)C1)C(=O)c1cc2cc(OC)ccc2[nH]1 (centres unmarked) [Compound 149]
< 1.5 | CCN(CC1CCN(C(C)(C)Cc2cccc(F)c2)CC1)C(=O)c1cc2ccccc2[nH]1 [Compound 330]
< 1.5 | CCN(CC1CCCN(CC(C)(C)c2cccc(OC(F)F)c2)C1)C(=O)c1cc2cc(OC(F)F)ccc2[nH]1 (centres unmarked) [Compound 408]
> 10 | CCN(CC1CCCNC1)C(=O)c1cc2c(Cl)cc(Cl)cc2[nH]1 (centres unmarked) [compound 416]
4 to 7 | CCN(CC1CCCNC1)C(=O)c1cc2c(F)cccc2[nH]1 (centres unmarked) [compound 421]

Structure (SMILES) | IC50 [µM]
CCN(CC1CCN(CC(C)(C)c2cc3ccccc3o2)CC1)C(=O)c1cc2ccccc2[nH]1 [Compound 405] | 4 to 7

Same assay, conditions: inhibition of TDP-43 aggregation; PC12 TDP-43^Q331K::eGFP, 1 hour pre-treatment, 15 μM sodium arsenite for 23 hours; 10-point dose response

IC50 [µM] | Structure (SMILES)
< 1.5 | CCN(CC1CCCN(C(C)(C)Cc2cccc(OC)c2)C1)C(=O)c1cc2cc(OC)ccc2[nH]1 (centres unmarked) [Compound 334]
4 to 7 | CCN(CC1CCCN(C(C)(C)Cc2cccc(OC(F)(F)F)c2)C1)C(=O)c1cc2cc(OC(F)(F)F)ccc2[nH]1 (centres unmarked) [compound 316]
